Results as given in patent publication US10004701B2, “Methods and compositions for treating infection” (UNIVERSITY OF ROCHESTER, priority 2012, dated 2018).
Structures can show the parent of a compound that is named as a salt. Where two headings read alike, the source gives them in different places.

Legend:
Assay in all cases: AK assay 384-well format, Prestwick library screening
[1] = system: E. faecium; assay type: cell-based, Enterococcus faecium; conditions: Enterococcus faecium, 3 h, 50 μM final drug concentration
[2] = system: S. aureus strain USA300-0114; assay type: cell-based, Staphylococcus aureus; conditions: Staphylococcus aureus, USA300, 3 h, 50 μM final drug concentration
[3] = system: K. pneumoniae; assay type: cell-based, Klebsiella pneumoniae; conditions: Klebsiella pneumoniae, 3 h, 50 μM final drug concentration
[4] = system: A. baumannii strain 98-37-09; assay type: cell-based, Acinetobacter baumannii; conditions: Acinetobacter baumannii, 983709, 3 h, 50 μM final drug concentration
[5] = system: P. aeruginosa; assay type: cell-based, Pseudomonas aeruginosa; conditions: Pseudomonas aeruginosa, 3 h, 50 μM final drug concentration
[6] = system: E. cloacae; assay type: cell-based, Enterobacter cloacae; conditions: Enterobacter cloacae, 3 h, 50 μM final drug concentration
[7] = system: E. coli; assay type: cell-based, Escherichia coli; conditions: Escherichia coli, 3 h, 50 μM final drug concentration
[8] = cutoff for positive-scoring molecules 3-fold increase, read-out: AK-based Prestwick Library Screening Results, E. faecium (fold increase in extracellular AK activity)
[9] = cutoff for positive-scoring molecules 3-fold increase, read-out: AK-based Prestwick Library Screening Results, S. aureus (fold increase in extracellular AK activity)
[10] = cutoff for positive-scoring molecules 3-fold increase, read-out: AK-based Prestwick Library Screening Results, K. pneumoniae (fold increase in extracellular AK activity)
[11] = cutoff for positive-scoring molecules 3-fold increase, read-out: AK-based Prestwick Library Screening Results, A. baumannii (fold increase in extracellular AK activity)
[12] = cutoff for positive-scoring molecules 3-fold increase, read-out: AK-based Prestwick Library Screening Results, P. aeruginosa (fold increase in extracellular AK activity)
[13] = cutoff for positive-scoring molecules 3-fold increase, read-out: AK-based Prestwick Library Screening Results, E. cloacae (fold increase in extracellular AK activity)
[14] = cutoff for positive-scoring molecules 3-fold increase, read-out: AK-based Prestwick Library Screening Results, E. coli (fold increase in extracellular AK activity)
[15] = planktonic E. faecium, 384-well, cutoff for positive-scoring molecules 3-fold increase, read-out: AK-based Prestwick Library Screening Results: E. faecium (increase in extracellular AK activity)
[16] = planktonic S. aureus, 384-well, cutoff for positive-scoring molecules 3-fold increase, read-out: AK-based Prestwick Library Screening Results: S. aureus (increase in extracellular AK activity)
[17] = planktonic K. pneumoniae, 384-well, cutoff for positive-scoring molecules 3-fold increase, read-out: AK-based Prestwick Library Screening Results: K. pneumoniae (increase in extracellular AK activity)
[18] = planktonic A. baumannii, 384-well, cutoff for positive-scoring molecules 3-fold increase, read-out: AK-based Prestwick Library Screening Results: A. baumannii (increase in extracellular AK activity)
[19] = planktonic P. aeruginosa, 384-well, cutoff for positive-scoring molecules 3-fold increase, read-out: AK-based Prestwick Library Screening Results: P. aeruginosa (increase in extracellular AK activity)
[20] = planktonic E. cloacae, 384-well, cutoff for positive-scoring molecules 3-fold increase, read-out: AK-based Prestwick Library Screening Results: E. cloacae (increase in extracellular AK activity)
[21] = planktonic E. coli, 384-well, cutoff for positive-scoring molecules 3-fold increase, read-out: AK-based Prestwick Library Screening Results: E. coli (increase in extracellular AK activity)
[22] = planktonic E. faecium, 384-well, […], read-out: AK-based Prestwick Library Screening Results: E. faecium (increase in extracellular AK activity)
[23] = planktonic S. aureus, 384-well, […], read-out: AK-based Prestwick Library Screening Results: S. aureus (increase in extracellular AK activity)
[24] = planktonic K. pneumoniae, 384-well, […], read-out: AK-based Prestwick Library Screening Results: K. pneumoniae (increase in extracellular AK activity)
[25] = planktonic A. baumannii, 384-well, […], read-out: AK-based Prestwick Library Screening Results: A. baumannii (increase in extracellular AK activity)
[26] = planktonic P. aeruginosa, 384-well, […], read-out: AK-based Prestwick Library Screening Results: P. aeruginosa (increase in extracellular AK activity)
[27] = planktonic E. cloacae, 384-well, […], read-out: AK-based Prestwick Library Screening Results: E. cloacae (increase in extracellular AK activity)
[28] = planktonic E. coli, 384-well, […], read-out: AK-based Prestwick Library Screening Results: E. coli (increase in extracellular AK activity)

COc1cc(C(=O)OC2CC3CCC(C2)N3C)ccc1O (centres unmarked) [Fillalbin]
fold induction at 50 µM [1, 8]: 1 | fold induction at 50 µM [2, 9]: 1 | fold induction at 50 µM [3, 10]: 0.8 | fold induction at 50 µM [4, 11]: 0.9 | fold induction at 50 µM [5, 12]: 1.2 | fold induction at 50 µM [6, 13]: 1.8 | fold induction at 50 µM [7, 14]: 1.2

CC(C)(C)NC(=O)[C@H]1CC[C@H]2[C@@H]3CC[C@H]4NC(=O)C=C[C@]4(C)[C@H]3CC[C@]12C [Finasteride]
fold induction at 50 µM [1, 8]: 1.1 | fold induction at 50 µM [2, 9]: 1 | fold induction at 50 µM [3, 10]: 0.9 | fold induction at 50 µM [4, 11]: 1.2 | fold induction at 50 µM [5, 12]: 1.1 | fold induction at 50 µM [6, 13]: 1.8 | fold induction at 50 µM [7, 14]: 1.1

O=C(COc1ccc(Cl)cc1)N1CCN(Cc2ccc3c(c2)OCO3)CC1 [Fipexide hydrochloride]
fold induction at 50 µM [1, 15]: 1.1 | fold induction at 50 µM [2, 16]: 0.9 | fold induction at 50 µM [3, 17]: 1.1 | fold induction at 50 µM [4, 18]: 1 | fold induction at 50 µM [5, 19]: 1 | fold induction at 50 µM [6, 20]: 1.3 | fold induction at 50 µM [7, 21]: 1.3

Cc1c(-c2ccccc2)oc2c(C(=O)OCCN3CCCCC3)cccc2c1=O [Flavoxate hydrochloride]
fold induction at 50 µM ([1]; 384-well format, cutoff for positive-scoring molecules 3-fold increase, read-out: AK-based Prestwick Library Screening Results, E. faecium (increase in extracellular AK activity)): 0.9 | fold induction at 50 µM ([2]; 384-well format, cutoff for positive-scoring molecules 3-fold increase, read-out: AK-based Prestwick Library Screening Results, S. aureus (increase in extracellular AK activity)): 0.6 | fold induction at 50 µM ([3]; 384-well format, cutoff for positive-scoring molecules 3-fold increase, read-out: AK-based Prestwick Library Screening Results, K. pneumoniae (increase in extracellular AK activity)): 0.6 | fold induction at 50 µM ([4]; 384-well format, cutoff for positive-scoring molecules 3-fold increase, read-out: AK-based Prestwick Library Screening Results, A. baumannii (increase in extracellular AK activity)): 0.5 | fold induction at 50 µM ([5]; 384-well format, cutoff for positive-scoring molecules 3-fold increase, read-out: AK-based Prestwick Library Screening Results, P. aeruginosa (increase in extracellular AK activity)): 0.6 | fold induction at 50 µM ([6]; 384-well format, cutoff for positive-scoring molecules 3-fold increase, read-out: AK-based Prestwick Library Screening Results, E. cloacae (increase in extracellular AK activity)): 0.6 | fold induction at 50 µM ([7]; 384-well format, cutoff for positive-scoring molecules 3-fold increase, read-out: AK-based Prestwick Library Screening Results, E. coli (increase in extracellular AK activity)): 0.5

O=C(NCC1CCCCN1)c1cc(OCC(F)(F)F)ccc1OCC(F)(F)F (centres unmarked) [Flecainide acetate]
fold induction at 50 µM ([1]; planktonic, cutoff for positive-scoring molecules 3-fold increase, read-out: AK-based Prestwick Library Screening Results, E. faecium (fold increase in extracellular AK activity)): 0.9 | fold induction at 50 µM ([2]; planktonic, cutoff for positive-scoring molecules 3-fold increase, read-out: AK-based Prestwick Library Screening Results, S. aureus (fold increase in extracellular AK activity)): 0.7 | fold induction at 50 µM ([3]; planktonic, cutoff for positive-scoring molecules 3-fold increase, read-out: AK-based Prestwick Library Screening Results, K. pneumoniae (fold increase in extracellular AK activity)): 0.6 | fold induction at 50 µM ([4]; planktonic, cutoff for positive-scoring molecules 3-fold increase, read-out: AK-based Prestwick Library Screening Results, A. baumannii (fold increase in extracellular AK activity)): 0.8 | fold induction at 50 µM ([5]; planktonic, cutoff for positive-scoring molecules 3-fold increase, read-out: AK-based Prestwick Library Screening Results, P. aeruginosa (fold increase in extracellular AK activity)): 0.6 | fold induction at 50 µM ([6]; planktonic, cutoff for positive-scoring molecules 3-fold increase, read-out: AK-based Prestwick Library Screening Results, E. cloacae (fold increase in extracellular AK activity)): 0.7 | fold induction at 50 µM ([7]; planktonic, cutoff for positive-scoring molecules 3-fold increase, read-out: AK-based Prestwick Library Screening Results, E. coli (fold increase in extracellular AK activity)): 0.6

Cc1onc(-c2c(F)cccc2Cl)c1C(=O)N[C@@H]1C(=O)N2[C@@H]1SC(C)(C)[C@@H]2C(=O)O [Flucloxacillin sodium]
fold induction at 50 µM ([1]; planktonic E. faecium, positive cutoff 3-fold increase, read-out: AK-based Prestwick library screening result, E. faecium (fold increase in extracellular AK activity)): 1 | fold induction at 50 µM ([2]; planktonic S. aureus, positive cutoff 3-fold increase, read-out: AK-based Prestwick library screening result, S. aureus (fold increase in extracellular AK activity)): 6.1 | fold induction at 50 µM ([3]; planktonic K. pneumoniae, positive cutoff 3-fold increase, read-out: AK-based Prestwick library screening result, K. pneumoniae (fold increase in extracellular AK activity)): 1.1 | fold induction at 50 µM ([4]; planktonic A. baumannii, positive cutoff 3-fold increase, read-out: AK-based Prestwick library screening result, A. baumannii (fold increase in extracellular AK activity)): 1.5 | fold induction at 50 µM ([5]; planktonic P. aeruginosa, positive cutoff 3-fold increase, read-out: AK-based Prestwick library screening result, P. aeruginosa (fold increase in extracellular AK activity)): 1.2 | fold induction at 50 µM ([6]; planktonic E. cloacae, positive cutoff 3-fold increase, read-out: AK-based Prestwick library screening result, E. cloacae (fold increase in extracellular AK activity)): 1.3 | fold induction at 50 µM ([7]; planktonic E. coli, positive cutoff 3-fold increase, read-out: AK-based Prestwick library screening result, E. coli (fold increase in extracellular AK activity)): 1.3

Nc1[nH]c(=O)ncc1F [Flucytosine]
fold induction at 50 µM [1, 8]: 0.9 | fold induction at 50 µM [2, 9]: 1.1 | fold induction at 50 µM [3, 10]: 0.8 | fold induction at 50 µM [4, 11]: 1.2 | fold induction at 50 µM [5, 12]: 1.1 | fold induction at 50 µM [6, 13]: 1.8 | fold induction at 50 µM [7, 14]: 1.1

CC(=O)OCC(=O)[C@@]1(O)CC[C@H]2[C@@H]3CCC4=CC(=O)CC[C@]4(C)[C@@]3(F)[C@@H](O)C[C@@]21C [Fludrocortisone acetate]
fold induction at 50 µM [1, 15]: 1.1 | fold induction at 50 µM [2, 16]: 1 | fold induction at 50 µM [3, 17]: 1 | fold induction at 50 µM [4, 18]: 1.2 | fold induction at 50 µM [5, 19]: 1.2 | fold induction at 50 µM [6, 20]: 1.4 | fold induction at 50 µM [7, 21]: 1.3

O=C(O)c1ccccc1Nc1cccc(C(F)(F)F)c1 [Flufenamic acid]
fold induction at 50 µM [1, 22]: 1 | fold induction at 50 µM [2, 23]: 0.5 | fold induction at 50 µM [3, 24]: 1 | fold induction at 50 µM [4, 25]: 1.3 | fold induction at 50 µM [5, 26]: 1.1 | fold induction at 50 µM [6, 27]: 1.8 | fold induction at 50 µM [7, 28]: 1

CC1CCc2cc(F)cc3c(=O)c(C(=O)O)cn1c23 (centres unmarked) [Flumequine]
fold induction at 50 µM [1, 22]: 1.5 | fold induction at 50 µM [2, 23]: 2.2 | fold induction at 50 µM [3, 24]: 2.2 | fold induction at 50 µM [4, 25]: 2.9 | fold induction at 50 µM [5, 26]: 1.4 | fold induction at 50 µM [6, 27]: 24.4 | fold induction at 50 µM [7, 28]: 13.6

Fc1ccc(C(c2ccc(F)cc2)N2CCN(C/C=C/c3ccccc3)CC2)cc1 [Flunarizine dihydrochloride]
fold induction at 50 µM [1, 15]: 1.3 | fold induction at 50 µM [2, 16]: 1.1 | fold induction at 50 µM [3, 17]: 1.4 | fold induction at 50 µM [4, 18]: 2.6 | fold induction at 50 µM [5, 19]: 1.3 | fold induction at 50 µM [6, 20]: 1.6 | fold induction at 50 µM [7, 21]: 1.7
